# Experimental data as given in patent publication US4087489A, “Insecticidal N-polychloroallylamido-thiophosphoric esters” (priority 1975, dated 1978).
# Read-outs that look alike come from different tables or passages of the source.
# Columns and labels:
# [1] = test system: Musca domestica; details: 0.5 γ/insect; literature compounds (Agricultural and Food Chemistry 11, 1963, p.237); cited from earlier work
# [2] = test system: Macrosiphum Euphorbiae; test: Activity test on Macrosiphum euphorbiae (aphides) on potato plants; type: in vivo
# Source text: Small potato plants, grown in pots, were infested with adult aphide females and, after a few hours, subjected to besprinkling with an aqueous dispersion of the product of Example 1, at a concentration of 0.1%. The percentual death-rate turned out to be 100% (on small untreated plants = 0).
# (§1) In order to show how the compounds of the invention have different activities depending on the species at varying concentrations, the death-rate percentages on various infesting kinds of compounds of the invention at varying concentrations of active principle have been recorded in Table II.
# [3] = test system: Leptinotarsa decemlineata; test: Activity test on Leptinotarsa decemlineata larvae on potato plants; type: in vivo; details: for mortality at 1 %: read-out: % mort. Leptinot. Decemlin.
# Source text: Potato plants grown in pots were infested with 4-day old larvae and subjected to besprinkling with an aqueous 0.1% dispersion of the product of Example 1.
# as §1
# [4] = test system: Musca domestica; test: Activity test on Musca domestica, topical application; type: in vivo
# Method: Activity of "Musca domestica" by O-methyl-O-(2,4,5-trichlorophenyl)-phosphoroamidothioates with relationship to the weight of the alkyl group bound to the nitrogen atom (iso-C3 H7 = 1) in comparison with that of the compound of Example 1 of this invention (in a quantity of 0.5 γ/insect):
# Adult 4-day flies were treated by topical application by means of a micro-syringe of 1 cubic millimeters (mm^3) of an acetone solution at 0.5 γ/ .mm^3 according to Example 1. […] (The death-rate of the flies treated with 1 .mm^3 of acetone under the same conditions was equal to 0).
# [5] = Acute oral toxicity (DL 50) in the albino mouse; details: in vivo
# [6] = test system: Culex pipiens; test: Activity test on Culex pipiens larvae in aqueous dispersion; type: in vivo
# Source text: Into glasses containing an aqueous dispersion of the product of Example 1 and at a concentration of 0.005 parts per million, p.p.m.: there were introduced larvae of third and fourth age.
# as §1
# [7] = test system: Tetran. Urt. adults; test: Activity on Tetran. Urt. adults (Table II); type: in vivo
# Source text: as §1
# [8] = test system: Spodopt. Littoralis; test: Activity on Spodopt. Littoralis (Table II); type: in vivo; details: 1 % a.p.
# Source text: as §1
# [9] = test system: Tetran Urt. eggs; test: Activity on Tetran Urt. eggs (Table II); type: in vivo
# Source text: as §1
# [10] = test system: Pieris Brassicae; test: Activity on Pieris Brassicae (Table II); type: in vivo; details: read-out: % mort. Pieris Brassicae
# Source text: as §1
# [11] = test system: albino mouse; details: oral, comparison value; cited from earlier work
compound,measurement,setting,value
COP(=S)(NC(C)C)Oc1ccc(Cl)cc1Cl (stereo not drawn),Percentual death-rate on Musca domestica,[1],100%
COP(=S)(NC(C)C)Oc1cc(Cl)c(Cl)cc1Cl (stereo not drawn),Percentual death-rate on Musca domestica,[1],100%
COP(=S)(NCC(C)C)Oc1cc(Cl)c(Cl)cc1Cl (stereo not drawn),Percentual death-rate on Musca domestica,[1],92%
COP(=S)(NC(C)(C)C)Oc1cc(Cl)c(Cl)cc1Cl (stereo not drawn),Percentual death-rate on Musca domestica,[1],13%
"CCOP(=S)(NCC=C(Cl)Cl)Oc1cc(Cl)c(Cl)cc1Cl (stereo not drawn) [Example 1, O-ethyl-O-(2,4,5-trichlorophenyl)-N-(3,3-dichloro-allyl)amido-thiophosphate]",mortality at 0.1 %,[2]; read-out: percentual death-rate,100%
same,mortality at 0.1 %,"[3]; 4-day old larvae on potato plants, aqueous 0.1% dispersion, after 48 hrs, read-out: percentual death-rate of the larvae",100%
same,Percentual death-rate on Musca domestica,"[4]; 0.5 γ/insect, Table I",100%
same,death-rate,"[4]; adult 4-day flies, topical 1 mm^3 acetone solution at 0.5 γ/mm^3, after 24 hours",100%
same,LD50,[5],> 100 mg/kg
same,mortality at 0.005 ppm,"[6]; larvae of third and fourth age, 0.005 p.p.m., after 24 hours, read-out: death-rate",100%
CSc1ccc(OP(=S)(NCC=C(Cl)Cl)OC(C)C)cc1C (stereo not drawn) [Example M7468],mortality at 1 %,[3]; 1 % a.p.,30%
same,% mort. Tetran. Urt. adults,"[7]; 0,1 % a.p.",0%
same,mortality at 0.02 µg/mL,"[6]; 0,02 ppm a.p., read-out: % mort. Oulex Pipens",30%
same,% mort. Spodopt. Littoralis,[8],0%
COP(=S)(Oc1ccc(SC)c(C)c1)N(C)CC=C(Cl)Cl (stereo not drawn) [Example M7469],mortality at 1 %,[3],20%
same,% mort. Tetran Urt. eggs,"[9]; 0,1 % a.p.",24%
same,% mort. Tetran Urt. eggs,[9]; 1 % a.p.,100%
same,% mort. Spodopt. Littoralis,[8],15%
CCOP(=S)(NCC=C(Cl)Cl)Oc1ccc([N+](=O)[O-])c(C)c1 (stereo not drawn) [M 6986],mortality at 1 %,"[2]; 1 % a.p., read-out: % mort. Macrosiphum Euphorbiae",100%
same,mortality at 1 %,[3]; 1 % a.p.,40%
same,mortality at 1 %,[10]; 1 % a.p.,100%
same,% mort. Tetran. Urt. adults,[7]; 1 % a.p.,26%
same,% mort. Tetran Urt. eggs,[9]; 1 % a.p.,12%
same,mortality at 0.2 µg/mL,"[6]; 0,2 ppm a.p., read-out: % mort. Oulex Pipens",100%
same,mortality at 2 µg/mL,[6]; read-out: % mort. Oulex Pipens,100%
same,% mort. Spodopt. Littoralis,[8],5%
CC(C)OP(=S)(NCC=C(Cl)Cl)Oc1cc(Cl)c(Cl)cc1Cl (stereo not drawn) [M 7147],mortality at 1 %,[3],75%
same,mortality at 1 %,[10],20%
same,% mort. Tetran. Urt. adults,[7]; 1 % a.p.,47%
COP(=S)(NCC=C(Cl)Cl)Oc1cc(Cl)c(Cl)cc1Cl (stereo not drawn) [M 7160],mortality at 1 %,[3]; 1 % a.p.,40%
same,% mort. Spodopt. Littoralis,[8],55%
COP(=S)(NCC=C(Cl)Cl)Oc1ccc([N+](=O)[O-])c(C)c1 (stereo not drawn) [M 7415],mortality at 1 %,[3]; 1 % a.p.,70%
COP(=S)(NCC=C(Cl)Cl)Oc1ccc(SC)c(C)c1 (stereo not drawn) [M 7466],% mort. Spodopt. Littoralis,[8],0%
CCOP(=S)(NCC=C(Cl)Cl)Oc1ccc(SC)c(C)c1 (stereo not drawn) [M 7467],mortality at 1 %,[3]; 1 % a.p.,55%
same,% mort. Spodopt. Littoralis,[8],30%
CCOP(=S)(Oc1ccc(SC)c(C)c1)N(C)CC=C(Cl)Cl (stereo not drawn) [M 7470],% mort. Tetran. Urt. adults,"[7]; 0,01 % a.p.",4%
same,% mort. Spodopt. Littoralis,[8],25%
CSc1ccc(OP(=S)(OC(C)C)N(C)CC=C(Cl)Cl)cc1C (stereo not drawn) [M 7471],mortality at 1 %,[3]; 1 % a.p.,65%
same,mortality at 0.1 %,"[10]; 0,1 % a.p.",0%
same,% mort. Tetran. Urt. adults,[7]; 1 % a.p.,57%
same,% mort. Spodopt. Littoralis,[8],0%
"CCOP(=S)(OCC)Oc1ccc([N+](=O)[O-])cc1 [Parathion, O,O-diethyl-O-p-nitrophenyl-phosphorthioate]",D.L. 50,[11],14 mg/kg
